# Experimental data as given in patent US20100120810A1, “COMPOUNDS AND METHODS FOR MODULATING RHO GTPASES” (priority 2007, published 2010).
# Counter-ions that a name gives are not always drawn. Like-named read-outs stand apart in the source and are kept apart here.
# Key:
# Format in all cases: biochemical
# [1] = target: T1, Rac1 activated by DH/PH domain of Guanine nucleotide Exchange Factor Tiam1 (Rac1/Tiam1) (Homo sapiens, UniProt P63000); assay: Nucleotide binding assay: BODIPY-GTP binding to Rac1 activated by Tiam1 DH/PH; conditions: read-out: Rac1 % inhibition of BODIPY-GTP binding
# T1 construct: made in house; host or cells: E. coli BL21 Codon+RIL
# Description: (§1) Fluorescence of GTP analog BODIPY-GTP increases when it binds to small G proteins. This property was used to assess ability of compounds to inhibit nucleotide binding to Rac1, Rac1b and Cdc42. 2 μM GST-Rac1 and 6 μg His6-Tiam1-DH/PH were diluted in a buffer containing 20 mM Tris, 50 mM NaCl, and 1 mM MgCl2. This mixture was loaded in a 96-well plate. Fluorescence recording were started (λEx: 485 nm; λEm: 538 nm) using a spectrofluorimeter (Fluoroskan; Thermolab Systems). Assay was initiated by the addition of 2 μM BODIPY-GTP with or without various doses of test compound. Fluorescence values were recorded, and data were processed as follows: background fluorescence (unbound BODIPY-GTP) was retrieved from fluorescence values.
# (§2) This assay allows determining whether compounds can inhibit the binding of a fluorescent nucleotide to recombinant small G proteins of interest. The effect of various alkaloid compounds on binding of BODIPY-GTP to Rac1 activated by DH/PH domain of Guanine nucleotide Exchange Factor Tiam1 (Rac1/Tiam1), Rac1b and Cdc42 is described below.
# Rac1b = target: T2, Rac1b (Homo sapiens, UniProt P63000); assay: Nucleotide binding assay: BODIPY-GTP binding to Rac1b; conditions: read-out: Rac1b % inhibition of BODIPY-GTP binding
# T2 construct: GST (N); made in house; host or cells: E. coli BL21 Codon+RIL
# Description: as §1, §2
# Cdc42 = target: T3, Cdc42 (Homo sapiens, UniProt P60953); assay: Nucleotide binding assay: BODIPY-GTP binding to Cdc42; conditions: read-out: Cdc42 % inhibition of BODIPY-GTP binding
# T3 construct: GST (N); made in house; host or cells: E. coli BL21 Codon+RIL
# Description: as §1, §2
# [2] = final concentration of 50 μM, Rac1/Tiam1
# T3 sequence (P60953 whole entry, species assumed): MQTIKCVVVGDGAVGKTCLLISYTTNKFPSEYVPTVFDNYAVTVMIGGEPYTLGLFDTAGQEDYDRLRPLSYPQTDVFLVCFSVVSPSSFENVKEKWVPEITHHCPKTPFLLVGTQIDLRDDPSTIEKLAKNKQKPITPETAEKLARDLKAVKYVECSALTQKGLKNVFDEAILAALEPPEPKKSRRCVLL
SMILES,"inhibition at 50 µM [1, 2] [%]",inhibition at 50 µM (Rac1b; final concentration of 50 μM) [%],inhibition at 50 µM (Cdc42; final concentration of 50 μM) [%],inhibition at 50 µM [1] [%],inhibition at 50 µM (Rac1b) [%],inhibition at 50 µM (Cdc42) [%]
"COc1cc2cc(-c3cccnc3)nc(C)c2cc1OC [Compound 36, 6,7-Dimethoxy-1-methyl-3-(pyridin-3-yl)isoquinoline dihydrochloride]",10 ± 3,12 ± 3,-4 ± 13,,,
"CNC(=O)c1ccc(-c2cc3cc(OC)c(OC)cc3c(C)n2)cc1 [Compound 34, 4-(6,7-Dimethoxy-1-methylisoquinolin-3-yl)-N-methylbenzamide]",-2 ± 3,3 ± 3,3 ± 5,,,
"COc1ccc(Cc2nccc3cc(OC)c(OC)cc23)cc1OC [Compound 9, 1-(3,4-dimethoxybenzyl)-6,7-dimethoxyisoquinoline hydrochloride, reference compound]",,,,1 ± 2,5 ± 2,2 ± 2
"COc1cc2cc(-c3ccc(C(=O)OC(C)C)cc3)nc(C)c2cc1OC [Compound 32, Isopropyl 4-(6,7-dimethoxy-1-methylisoquinolin-3-yl)benzoate hydrochloride]",4 ± 5,10 ± 4,2 ± 1,,,
"COc1cc2c(cc1OC)CN(Cc1cccc(O)c1O)CC2 [Compound 18, 2-(2,3-Dihydroxybenzyl)-6,7-dimethoxy-1,2,3,4-tetrahydroisoquinolinium chloride]",1 ± 2,4 ± 3,-8 ± 10,,,
"CCc1cc2c(cc1C1Cc3ccc(OC)c(OC)c3CN1C)OCO2 (racemic) [Compound 20, (±)-3-(6-Ethylbenzo[d][1,3]dioxol-5-yl)-7,8-dimethoxy-2-methyl-1,2,3,4-tetrahydroisoquinolinylium chloride]",4 ± 4,-6 ± 10,8 ± 3,,,
"COc1ccc2c(c1OC)C(Cc1ccccc1)N1CCc3cc4c(cc3C1C2)OCO4 (racemic) [Compound 12, (±)-8-Benzyl-9,10-dimethoxy-5,8,13,13a-tetrahydro-6H-[1,3]dioxolo[4,5-g]isoquino[3,2-a]isoquinoline hydrochloride]",23 ± 3,31 ± 4,9 ± 2,,,
"COc1cc2cc(-c3ccccc3)nc(C)c2cc1OC [Compound 44, 6,7-Dimethoxy-1-methyl-3-phenylisoquinolinylium chloride]",10 ± 3,8 ± 3,10 ± 1,,,
"COc1cc2cc(-c3cccc(NC(C)=O)c3)nc(C)c2cc1OC [Compound 31, N-(3-(6,7-Dimethoxy-1-methylisoquinolin-3-yl)phenyl)acetamide hydrochloride]",-1 ± 2,10 ± 3,10 ± 1,,,
"COc1ccc2c(c1OC)CN1CCc3cc4c(cc3C1C2)OCO4 (racemic) [Compound 3, (±)-Canadine hydrochloride]",,,,1 ± 3,-7 ± 4,
"COc1cc2cc(-c3ccc(Cl)c(Cl)c3)nc(C)c2cc1OC [Compound 39, 3-(3,4-Dichlorophenyl)-6,7-dimethoxy-1-methylisoquinolinylium chloride]",17 ± 7,42 ± 7,5 ± 1,,,
"COc1cc2cnc(-c3ccccc3)cc2cc1OC [Compound 49, 6,7-Dimethoxy-3-phenylisoquinolinium chloride]",1 ± 5,2 ± 4,2 ± 6,,,
"COc1ccc2c(c1OC)C(Cc1ccccc1)N1CCc3cc4c(cc3C1=C2)OCO4 (stereo not drawn) [Compound 11, 8-benzyl-9,10-dimethoxy-5,8-dihydro-2H-6H-[1,3]dioxolo[4,5-g]isoquino[3,2-a]isoquinoline]",-1 ± 2,-2 ± 3,1 ± 1,,,
"COc1cc2cc(-c3cccc(C(C)=O)c3)[n+](C)c(C)c2cc1OC [Compound 25, 3-(3-Acetylphenyl)-6,7-dimethoxy-1,2-dimethylisoquinolinium chloride]",20 ± 3,29 ± 3,7 ± 1,,,
"COc1cc2cc(-c3ccccc3N)nc(C)c2cc1OC [Compound 37, 2-(6,7-Dimethoxy-1-methylisoquinolin-3-yl)aniline dihydrochloride]",10 ± 1,14 ± 2,1 ± 13,,,
"COc1cc2cc3c4cc(OC)c(OC)cc4cc[n+]3c(C)c2cc1OC [Compound 8, 8-methyl-2,3,10,11-tetramethoxydibenzo[a,g]quinolizinium chloride, hydrate, reference compound]",,,,36 ± 4,44 ± 4,21 ± 2
"Oc1cc2c(cc1O)-c1cc3ccc(O)c(O)c3c[n+]1CC2 [Compound 6, 5,6-dihydro-isoquino[3,2-a]isoquinolinylium-2,3,9,10-tetraol chloride]",,,100,,,
"COc1ccc2c(c1OC)CN1CCc3cc(O)c(O)cc3C1C2 (racemic) [Compound 17, (±)-9,10-Dimethoxy-5,8,13,13a-tetrahydro-6H-isoquino[3,2-a]isoquinoline-2,3-diol hydrochloride]",,,,5 ± 3,-7 ± 4,-13 ± 12
"COc1cc2cc(-c3cccc([N+](=O)[O-])c3)nc(C)c2cc1OC [Compound 23, 6,7-Dimethoxy-1-methyl-3-(3-nitrophenyl)isoquinolinium chloride]",3 ± 4,10 ± 4,14 ± 3,,,
"COc1ccc2c(c1OC)C(c1ccccc1)N1CCc3cc4c(cc3C1=C2)OCO4 (stereo not drawn) [Compound 10, 9,10-dimethoxy-8-phenyl-5,8-dihydro-2H-6H-[1,3]dioxolo[4,5-g]isoquino[3,2-a]isoquinoline]",18 ± 2,27 ± 2,17,,,
"COc1cc2cc(-c3ccc(Cl)cc3)nc(C)c2cc1OC [Compound 42, 3-(4-Chlorophenyl)-6,7-dimethoxy-1-methylisoquinolinylium chloride]",18 ± 3,17 ± 3,11 ± 2,,,
"COc1cc2c(cc1OC)CN(Cc1cccc(OC)c1OC)CC2 [Compound 7, 2-(2,3-Dimethoxybenzyl)-6,7-dimethoxy-1,2,3,4-tetrahydroisoquinoline hydrochloride]",0,6 ± 3,-1 ± 1,,,
"COc1ccc(-c2cc3cc(OC)c(OC)cc3c(C)n2)cn1 [Compound 35, 6,7-Dimethoxy-3-(6-methoxypyridin-3-yl)-1-methylisoquinoline dimethanesulfonate]",6 ± 4,6 ± 2,11 ± 2,,,
"COc1ccc2c(c1OC)C[N+]1(Cc3ccccc3)CCc3cc4c(cc3C1C2)OCO4 (racemic) [Compound 5, (±)-7-benzyl-9,10-dimethoxy-5,8,13,13a-tetrahydro-6H-[1,3]dioxolo[4,5-g]isoquino[3,2-a]isoquinolinylium bromide]",9 ± 2,16 ± 2,3 ± 1,,,
"COc1cc2cc(-c3ccccc3NC(C)=O)nc(C)c2cc1OC [Compound 38, N-(2-(6,7-Dimethoxy-1-methylisoquinolin-3-yl)phenyl)acetamide]",1 ± 3,0,3 ± 7,,,
